Assay results as given in patent publication US12187754B2, “LpxC inhibitors and uses thereof” (Blacksmith Medicines, Inc., priority 2021, dated 2025).

How the values were obtained:
[1] = tested on: E. coli UTI 89; test: Mouse urinary tract infection model, E. coli UTI 89; assay type: in vivo; settings: for Bladder Terminal Burden / Kidney Terminal Burden / Urine Terminal Burden: mice, 96 h post infection; for bacterial burden in urine relative to vehicle-treated controls / bacterial burden in bladder relative to vehicle-treated controls / bacterial burden in kidney relative to vehicle-treated control / efficacy on bacterial burden in kidney: E. coli UTI 89, mice; for bacterial burden in bladder relative to vehicle-treated controls / bacterial burden in kidney relative to vehicle-treated control: IV administration; for efficacy on bacterial burden in kidney: PO administration
Method: (§1) Compound A and its prodrugs as disclosed herein were tested in an in vivo mouse model for Urinary Tract Infection. Briefly, mice were infected with E. coli UTI 89 to cause a UTI infection and were treated with compounds disclosed herein.
(§2) Five days prior to infection, C3H/HeNR female mice were preconditioned with drinking water containing 5% glucose. Mice were rendered unconscious using parenteral anaesthesia (ketamine/medetomidine) then 0.05 mL of a bacterial suspension of E. coli UTI 89 (1.2×10^9 CFU/mL (6.2×10^7 CFU/mouse) was administered transurethrally into the bladder to cause an ascending UTI infection.
IV or PO treatment was started 24 h post infection with 3, 10, 15 mg/kg/dose IV Compound A; 3, 10, 15.30 mg/kg/dose IV Compound 1; 3, and 10 mg/kg/dose IV Compound 2; and 30 mg/kg/dose oral of either Compound 1 or 2 administered every 12 hours for 3 days (six doses total). Ciprofloxacin was given as a control at 10 mg/kg/dose IV every 12 hours. Compound A was formulated in 10% DMSO, 5% Cremophor, 85% SFI; the remaining compounds used a sterile phosphate-buffered saline (PBS) formulation. Each group was comprised of five mice each.
(§3) Urine, bladder, and kidney were harvested at 24 h (pre-treatment group only) and 96 h post infection and quantitatively cultured.

[2] = tested on: K. pneumoniae BAA-1705; test: Mouse urinary tract infection model, K. pneumoniae BAA-1705; assay type: in vivo; settings: for Bladder Terminal Burden / Kidney Terminal Burden / Urine Terminal Burden: mice, 96 hours; for bacterial burden in urine relative to vehicle-treated controls and the ciprofloxacin control: except for the 30 mg/kg IV Compound A experiment
Method: as §1, §2
[…]; […]; […]; […] for 3 days (six doses total). Ciprofloxacin was given as a control at 10 mg/kg/dose IV every 12 hours. Compound A was formulated in 10% DMSO, 5% Cremophor, 85% SFI; the remaining compounds used a sterile phosphate-buffered saline (PBS) formulation. Each group was comprised of five mice each.
as §3
The experiment was repeated using K. pneumoniae BAA-1705 (MDR; MIC90 strain). Table 5 and FIG. 2 summarize the results, showing the average terminal burden of K. pneumoniae BAA-1705 in urine, bladder, and kidney at the conclusion of the study (96 hours).

[3] = Thermal solubility; assay type: physicochemical; settings: aqueous buffer, thermodynamic from solid; 100 mM potassium phosphate buffer pH 7.4, 24 h, 25° C.
Method: Solubility of the compounds was assessed in 100 mM potassium phosphate buffer at pH 7.4 after 24 hours at room temperature.
Accurately weighed K2HPO4 (2.79 g) and KH2PO4 (0.54 g) were dissolved in 90 mL of Milli-Q water and mixed well. Volume was made upto 200 mL with Milli-Q water and mixed well. The prepared phosphate buffer was stored at 2-8° C. and used within a month.
Approximately 30 mg of test compound was added to approximately 1 mL of the potassium phosphate buffer, pH 7.4. If the visual inspection indicated precipitation, no further compound is added. If the visual inspection indicated a clear solution, further increments of compound were added until the solution was no longer clear.
Test compounds and assay controls (caffeine) were further incubated for 24 h at 25° C. temperature on a thermomixer at a shaking speed of 1200 rpm. After incubation, the samples (200 μL) were transferred to a filtration plate to which a plate was attached at bottom for collecting the filtrate. The plate was centrifuged at 4000 rpm for 2 min and the filtrate was collected in the attached bottom plate. The filtrates were diluted using filtered buffer based on the initial amount of compound added. All samples were analysed by HPLC-UV method against 8 point calibration curve with concentrations ranging from 2.5 μg/mL to 1000 μg/mL.

[4] = Kinetic solubility; assay type: physicochemical
Method: Solubility of the compounds was assessed in 10 mM phosphate-buffered saline (PBS) at pH 7 at final concentrations of 20, 40, and 50 mg/mL of test compound.

[5] = Pharmacokinetics in rats; assay type: in vivo, Male Sprague-Dawley (SD) rats; settings: male, Sprague-Dawley, plasma, intravenous, oral; after 4 h, all routes and doses tested in rat; read-out: plasma concentration of prodrug Compound 1
Method: (§4) Stock solutions of test compounds were prepared at 2.5 or 5.0 mg/mL in 10 mM PBS. Male Sprague-Dawley (SD) rats (n=3 per group) or beagle dogs (n=3 per group) were administered test compound by either IV or oral administration. For IV-administered compounds, a three hour infusion was used. For PO-administered compounds, a single bolus dose was used.
(§5) After initiation of IV dosing (or after PO bolus dosing), whole blood samples were collected at 1, 3, 3.5, 4, 6, 8, and 24 hour timepoints. All samples were collected into Plasma K2-EDTA collection tubes and processed to separate plasma from red blood cells.
(§6) Liquid chromatography-tandem mass spectrometry (LC-MS/MS) was used to analyze all plasma samples, with both the test compound and the active agent Compound A being quantified. The lower limit of quantitation (LLOQ) for both rats and dogs was 1 ng/mL.

[6] = Pharmacokinetics in dogs; assay type: in vivo; settings: beagle, plasma, intravenous, oral; after 6 h, all routes and doses tested in dog; read-out: plasma concentration of prodrug Compound 1
Method: as §4, §5, §6

[7] = 10 mg/kg/dose IV every 12 hours for 3 days
[8] = 20, 40, and 50 mg/mL in 10 mM PBS pH 7
[9] = 3 mg/kg/dose IV every 12 hours for 3 days
[10] = 15 mg/kg/dose IV every 12 hours for 3 days
[11] = 30 mg/kg/dose PO every 12 hours for 3 days

Row | SMILES | Bladder Terminal Burden [1, 7] | Kidney Terminal Burden [1, 7] | Urine Terminal Burden [1, 7] | solubility at 24 h [3] [µg/mL] | appearance after vortex mixing [4, 8] | Bladder Terminal Burden [1, 9] | Kidney Terminal Burden [1, 9] | Urine Terminal Burden [1, 9] | Bladder Terminal Burden [1, 11] | Kidney Terminal Burden [1, 11] | Urine Terminal Burden [1, 11] | bacterial burden in urine relative to vehicle-treated controls [1] | bacterial burden in bladder relative to vehicle-treated controls [1] | bacterial burden in kidney relative to vehicle-treated control [1] | efficacy on bacterial burden in kidney [1] | bacterial burden in kidney relative to vehicle-treated controls and the ciprofloxacin control ([2]; K. pneumoniae BAA-1705, mice) | bacterial burden in urine relative to vehicle-treated controls and the ciprofloxacin control ([2]; K. pneumoniae BAA-1705, mice) | other results
1 | O=C(O)c1cn(C2CC2)c2cc(N3CCNCC3)c(F)cc2c1=O [Ciprofloxacin, reference compound] | 2.85 × 10^5 CFU/mL | 1.88 × 10^2 CFU/mL | 5.07 × 10^2 CFU/mL |  |  |  |  |  |  |  |  |  |  |  |  |  |  | Bladder Terminal Burden ([2]; 10 mg/kg/dose IV): 2.27 × 10^1 CFU/mL; Kidney Terminal Burden ([2]; 10 mg/kg/dose IV): 1.88 × 10^3 CFU/mL; Urine Terminal Burden ([2]; 10 mg/kg/dose IV): 1.78 × 10^2 CFU/mL; Bladder Terminal Burden ([2]; 10 mg/kg/dose PO): 4.05 × 10^2 CFU/mL; Kidney Terminal Burden ([2]; 10 mg/kg/dose PO): 2.59 × 10^4 CFU/mL; Urine Terminal Burden ([2]; 10 mg/kg/dose PO): 9.71 × 10^2 CFU/mL
2 | N#CC1CN(C[C@@H](Cc2nc[nH]c(=O)c2OP(=O)(O)O)c2ccc(C#Cc3ccc(CN4CCOCC4)cc3)cc2)C1 [Compound 1, (S)-4-(3-(3-cyanoazetidin-1-yl)-2-(4-((4-(morpholinomethyl)phenyl)ethynyl)phenyl)propyl)-6-oxo-1,6-dihydropyrimidin-5-yl dihydrogen phosphate] | 5.05 × 10^5 CFU/mL | 5.24 × 10^2 CFU/mL | 9.40 × 10^3 CFU/mL | ≥ 3000 | clear solutions | 2.64 × 10^6 CFU/mL | 4.74 × 10^4 CFU/mL | 2.93 × 10^5 CFU/mL | 1.81 × 10^5 CFU/mL | 4.04 × 10^2 CFU/mL | 8.73 × 10^3 CFU/mL | statistically significant reductions in bacterial burden in urine | reductions in bacterial burden in bladder | statistically significant reductions in bacterial burden in kidney | efficacious | statistically significant reductions in bacterial burden in kidney | statistically significant reductions in bacterial burden in urine | solubility after storage ([4]; 20, 40, and 50 mg/mL in 10 mM PBS pH 7, storage at 4° C. for 20 hours): remained soluble; concentration at 4 h [5]: < 100 ng/mL; concentration at 6 h [6]: < 100 ng/mL; Bladder Terminal Burden [1, 10]: 9.57 × 10^4 CFU/mL; Kidney Terminal Burden [1, 10]: 1.28 × 10^2 CFU/mL; Urine Terminal Burden [1, 10]: 3.59 × 10^3 CFU/mL; Bladder Terminal Burden ([2]; 11.5 mg/kg/dose IV): BLoD; Kidney Terminal Burden ([2]; 11.5 mg/kg/dose IV): 1.72 × 10^1 CFU/mL; Urine Terminal Burden ([2]; 11.5 mg/kg/dose IV): 2.15 × 10^1 CFU/mL; Bladder Terminal Burden ([2]; 35 mg/kg/dose IV): BLoD; Kidney Terminal Burden ([2]; 35 mg/kg/dose IV): BLoD; Urine Terminal Burden ([2]; 35 mg/kg/dose IV): BLoD; Bladder Terminal Burden ([2]; 69.5 mg/kg/dose IV): 4.58 × 10^0 CFU/mL; Kidney Terminal Burden ([2]; 69.5 mg/kg/dose IV): BLoD; Urine Terminal Burden ([2]; 69.5 mg/kg/dose IV): BLoD; Bladder Terminal Burden ([2]; 104.5 mg/kg/dose PO): BLoD; Kidney Terminal Burden ([2]; 104.5 mg/kg/dose PO): BLoD; Urine Terminal Burden ([2]; 104.5 mg/kg/dose PO): 2.51 × 10^0 CFU/mL; bacterial loads in kidney ([2]; K. pneumoniae BAA-1705, mice, all routes of administration): below the limit of detection
3 | N#CC1CN(C[C@@H](Cc2nc[nH]c(=O)c2OCOP(=O)(O)O)c2ccc(C#Cc3ccc(CN4CCOCC4)cc3)cc2)C1 [Compound 2, (S)-((4-(3-(3-cyanoazetidin-1-yl)-2-(4-((4-(morpholinomethyl)phenyl)ethynyl)phenyl)propyl)-6-oxo-1,6-dihydropyrimidin-5-yl)oxy)methyl dihydrogen phosphate] | 1.17 × 10^6 CFU/mL | 9.67 × 10^2 CFU/mL | 2.73 × 10^4 CFU/mL | ≥ 3000 | milky suspensions | 5.15 × 10^5 CFU/mL | 2.52 × 10^3 CFU/mL | 4.69 × 10^4 CFU/mL | 2.82 × 10^5 CFU/mL | 3.81 × 10^2 CFU/mL | 3.41 × 10^3 CFU/mL | statistically significant reductions in bacterial burden in urine | reductions in bacterial burden in bladder | statistically significant reductions in bacterial burden in kidney | efficacious | statistically significant reductions in bacterial burden in kidney | statistically significant reductions in bacterial burden in urine | appearance after sonication ([4]; 20, 40, and 50 mg/mL in 10 mM PBS, sonication in 40° C. water bath for 30 min): no change in appearance; appearance after treatment with 1M HCL ([4]; 20, 40, and 50 mg/mL, final pH of 4, 10 seconds of vortexing): Clear solutions; appearance after addition of 1M NaOH ([4]; 20, 40, and 50 mg/mL, final pH of 7, 10 seconds of vortexing): clear solutions
